Measurements reported in patent US8969333B2, “Therapeutic compositions and methods” (The Penn State Research Foundation, priority 2010, dated 2015).
Read-outs that look alike come from different tables or passages of the source.

How the values were obtained:
PAD4 = PAD4 (Homo sapiens (Human), UniProt Q9UM07); experiment: PAD4 enzyme activity colorimetric assay (citrullination of BAEE); assay type: biochemical; details: 0.2 μg PAD4, 5 mM BAEE, 37° C.
Experimental: PAD4 enzyme activity assays are conducted to determine PAD4 inhibitory activity. PAD4 inhibition efficacy of the inhibitors is determined using a colorimetric assay for citrullination production.
The inhibition efficacy of PAD4 inhibitors were determined by colorimetric measurement of citrulline generated by PAD4 catalyzed citrullination of BAEE. 0.2 μg PAD4 was pre-incubated with inhibitors in 100 μl buffer containing 50 mM Tris-HCl pH7.6, 5 mM CaCl2, 2 mM DTT for 0.5 hr at 37° C. The reaction was started by the addition of BAEE to 5 mM and halted 1.5 hr later with the addition of 25 μl 5 M HClO4. Then the samples were briefly centrifuged at 12000 rpm for 2 min at 4° C. and the supernatant (120 μl) were assayed for citrulline by mixing with 120 μl reagent A (0.5% w/v diacetyl monoxime and 15% w/v NaCl in water) and 240 μl reagent B (1% w/v antipyrine, 0.15% w/v ferric chloride, 25% v/v H2SO4 and 25% v/v H3PO4). The mixtures were boiled for 15 min and cooled to room temperature in ice bath. The absorbance of the reagent mixtures at 464 nm was measured by Thermo BioMate™ 3 spectrophotometer. Efficacies of inhibitors are indicated as relative PAD4 citrullination activity by normalizing the PAD4 activity without inhibitor treatment to 100%.

[1] = system: U2OS human osteosarcoma cells; experiment: MTT assay of U2OS cancer cell growth inhibition; assay type: cell-based; details: for IC50: read-out: 50% inhibition Cell growth, U2OS cells, MTT, 72 hr; for U2OS cell growth in MTT assay: 20 μM, 3 days
Experimental: MIT assays are conducted to evaluate activity to inhibit cancer cell growth. U2OS human osteosarcoma cells were treated with individual compounds at different concentrations for 72 hr in 24-well plates. MIT reagent was added to a final concentration of 0.5 mg/ml and further incubated for 4 hr. The yellow-colored MTT was reduced to insoluble purple-colored Formazan in living cells. Culture medium was removed and DMSO was added to dissolve Formazan into solution. The absorbance of the solution was then measured at 570 nm using a Thermo BioMate™ 3 spectrophotometer. Results are shown in FIG. 1 and average and standard deviations are shown (n>=3).
Cells were treated with individual compounds at different concentrations for 72 hr in 24-well plates. MTT reagent was added to a final concentration of 0.5 mg/ml and further incubated for 4 hr. The yellow-colored MTT was reduced to insoluble purple-colored Formazan in living cells. Culture medium was removed and DMSO was added to dissolve Formazan into solution. The absorbance of the solution was then measured at 570 nm using a Thermo BioMate™ 3 spectrophotometer.

p53 and its target genes = experiment: RT-qPCR and Western blot of p53 and its target genes in U2OS cells; assay type: cell-based, human; details: U2OS cells
Experimental: Western blot and immunostaining was performed essentially as described in Li, P. et al., Oncogene 29 (21), 3153-3162 (2010). Antibodies used in Western blot were anti-p53 (Sigma), anti-PAD4, anti-p21 (Sigma), anti-PUMA (Calbiochem), anti-SESN2 (Abeam), anti-p70S6K (Cell Signaling), anti-p70S6K-pT389 (Cell Signaling), anti-LC3 (Cell Signaling) and anti-β-actin (Sigma) at appropriate dilutions. Anti-LC3B antibody (Cell Signaling) was used for immunostaining. DNA was stained by the DNA dye Hoechst.
RNA was extracted using RNeasy Mini Kit (Qiagen) per manufacturer's instructions. 1 μg RNA was reverse transcribed into cDNA using qScript cDNA SuperMix (Quanta Biosciences) per manufacturer's instructions. Quantitative PCR was performed using SYBR Green SuperMix (Quanta Biosciences) in StepOnePlus Real-Time PCR System (Applied Biosystems). FIG. 10 is a graph showing p53 and its target gene expression induced in S180 cells by YW3-56 in a concentration dependent manner.
U2OS and S-180 cells were cultured in Dulbecco modified Eagle medium (DMEM) supplemented with 10% fetal bovine serum and 1% penicillin-streptomycin in a 5% CO2 incubator. U2OS p53-shRNA and U2OS Ctrl-shRNA cells were generated as described in Li, P. et al., Regulation of p53 target gene expression by peptidylarginine deiminase 4. Mol Cell Bial 28 (15), 4745-4758 (2008). Concentrations and duration of YW3-56 treatment were performed as specified in the figures and text. For starvation assay, U2OS cells were first cultured in serum-free DMEM for 16 hr, 10% fetal bovine serum and different concentrations of YW3-56 was then added back and cells were further incubated for 8 hr before further analyses. SESN2 siRNA (Santa Cruz) and GFP siRNA (Dharmacon Inc.) were transfected into U2OS cells using the XtremeGene siRNA transfection reagents (Roche Inc.). Cells were incubated in the presence of the siRNA for 48 hr before adding YW3-56 and further incubated for 8 hr before analyses.
The relative abundance of each gene is compared with β-actin as a reference. Increase in several p53 target genes, such as p21, GADD45, PUMA, OKL38, DRAM, and Sestrin2, is detected after YW3-88 treatment at 12 μM concentration. […] Increase in p21 and PUMA proteins is detected.

[2] = system: PAD4+/+ mouse neutrophils; experiment: Histone citrullination, enlarged nucleus and NET formation in PAD4+/+ neutrophils; assay type: cell-based; details: for NET formation, percentage of neutrophils / Histone citrullination, percentage of positive neutrophils / Enlarged nucleus, percentage of neutrophils: PAD4+/+; for NET formation, percentage of neutrophils / Enlarged nucleus, percentage of neutrophils: Cl-amidine 200 μM 30 min prior to LPS; for Histone citrullination, percentage of positive neutrophils: Cl-amidine 200 μM 30 min prior to LPS for 3 hr; for Enlarged nucleus, percentage of neutrophils: nuclear diameter over 1.5 fold larger
Experimental: (§1) NET formation is induced after lipopolysaccharides (LPS) and phorbol myristate acetate (PMA) treatment in human neutrophils (Brinkmann et al., 2004). To test whether PAD4 is important for chromatin decondensation and NET formation upon LPS treatment, immunostaining experiments are performed. Before LPS treatment, ˜3.69% of PAD4^+/+ neutrophils are positively stained for histone H3 citrullination but NET formation is not detected, while histone H3 citrullination or NET formation is not observed in PAD4^−/− neutrophils. After LPS treatment, an increase in histone H3 citrullination is detected in PAD4^+/+ but not in PAD4^−/− neutrophils by Western blotting or immunostaining analyses. […] The decondensed chromatin induced by LPS is positively stained by histone H3 citrullination and neutrophil elastase antibodies, indicating these structures are indeed NETs. […] Furthermore, chromatin decondensation and histone citrullination are detected in PAD4^+/+ but not in PAD4^−/− neutrophils after PMA treatment.
(§2) Table II illustrates the efficacy of LPS, PMA, and H2O2 in inducing chromatin structure changes in PAD4^+/+ and PAD4^−/− neutrophils. […] PAD4 is required for NET formation after stimulation of neutrophils.

[3] = system: human HL-60 granulocytic cells; details: HL-60 granulocytic cells (Wang et al., 2009); cited from earlier work
[4] = system: PAD4-/- mouse neutrophils; experiment: Histone citrullination, enlarged nucleus and NET formation in PAD4-/- neutrophils; assay type: cell-based; details: U.D. = undetectable
Experimental: as §1, §2

[5] = Body and vital organ weight after 1 week of treatment; assay type: in vivo, mouse
Experimental: S180 ascites tumor cells were used to form solid tumors after subcutaneous injection essentially as described in Wang, W. et al., Mol. Biosyst., 2011, 7:766-772. In brief, for initiation of subcutaneous tumors, the cells were obtained as an ascitic form from the tumor-bearing mice, which were serially transplanted once per week. Subcutaneous tumors were implanted by injecting 0.2 ml of 0.9% saline containing 1×10^7 viable tumor cells under the skin on the right armpit. 24 hr after implantation, male ICR mice were randomly divided into experimental groups. The mice in the positive control group were given a daily i.p injection of 2 mg/kg of doxorubicin in 0.2 ml of 0.9% saline for 7 consecutive days. The mice in the negative control group were given a daily i.p injection of 0.2 ml of 0.9% saline for 7 consecutive days. […] The weights of the mice were recorded every day. […]
FIG. 13A-13F show weight of whole body, FIG. 13A; brain, FIG. 13B; heart, FIG. 13C; liver, FIG. 13D; kidney, FIG. 13E; and spleen, FIG. 13F measured in mice after 1 week of treatment with daily intraperitoneal injection of control PBS, YW3-56 at 10 mg/kg body weight, SAHA at 5 mg/kg body weight, a mixture of YW3-56 at 5 mg/kg body weight and SAHA at 2.5 mg/kg body weight, or doxorubicin at 2 mg/kg body weight. * in (f) denotes a loss of spleen weight after doxorubicin treatment.

S180 tumor = experiment: Sarcoma S180 cell-derived mouse tumor model; assay type: in vivo; details: SAHA 5 mg/kg daily for 1 week
Text: A well-established sarcoma S180 cell-derived mouse tumor model is used in this example to determine the effects of PAD4 inhibitors of the present invention on tumor growth in mice.
S180 ascites tumor cells were used to form solid tumors after subcutaneous injection essentially as described in Wang, W. et al., Mol. Biosyst., 2011, 7:766-772. In brief, for initiation of subcutaneous tumors, the cells were obtained as an ascitic form from the tumor-bearing mice, which were serially transplanted once per week. Subcutaneous tumors were implanted by injecting 0.2 ml of 0.9% saline containing 1×10^7 viable tumor cells under the skin on the right armpit. 24 hr after implantation, male ICR mice were randomly divided into experimental groups. The mice in the positive control group were given a daily i.p injection of 2 mg/kg of doxorubicin in 0.2 ml of 0.9% saline for 7 consecutive days. The mice in the negative control group were given a daily i.p injection of 0.2 ml of 0.9% saline for 7 consecutive days. The mice in the treatment groups were given a daily i.p injection of YW3-56 (10 mg/kg), SAHA (5 mg/kg), or a combination of YW3-56 (5 mg/kg) and SAHA (2.5 mg/kg) for 7 consecutive days. The weights of the mice were recorded every day. 24 hr after the last administration, all mice were weighed, euthanized and immediately dissected to obtain and weigh the tumor and vital organs.

[6] = read-out: 50% inhibition PAD4 activity

Chain of PAD4 (Q9UM07 whole entry, species assumed): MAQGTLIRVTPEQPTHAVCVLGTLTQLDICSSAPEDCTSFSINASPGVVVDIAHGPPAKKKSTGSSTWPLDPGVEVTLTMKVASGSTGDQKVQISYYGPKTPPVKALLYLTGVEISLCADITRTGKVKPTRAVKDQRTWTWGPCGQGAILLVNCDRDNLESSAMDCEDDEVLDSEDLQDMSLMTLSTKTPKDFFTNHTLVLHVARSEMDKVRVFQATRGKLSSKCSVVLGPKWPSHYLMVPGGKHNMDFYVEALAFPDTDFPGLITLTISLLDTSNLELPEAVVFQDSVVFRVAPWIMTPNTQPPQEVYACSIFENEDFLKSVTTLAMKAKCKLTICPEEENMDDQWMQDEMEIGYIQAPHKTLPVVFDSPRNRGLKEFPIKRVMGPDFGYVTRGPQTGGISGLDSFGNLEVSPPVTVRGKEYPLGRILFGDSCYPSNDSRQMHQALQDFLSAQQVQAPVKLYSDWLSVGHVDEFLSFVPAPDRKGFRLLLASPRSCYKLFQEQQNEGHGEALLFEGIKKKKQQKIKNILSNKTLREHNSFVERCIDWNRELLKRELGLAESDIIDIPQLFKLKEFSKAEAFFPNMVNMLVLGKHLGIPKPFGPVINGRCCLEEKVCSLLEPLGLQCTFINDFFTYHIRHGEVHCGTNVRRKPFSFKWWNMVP

Compound	IC50 (PAD4; [6]) [µM]	IC50 ([1]; Homo sapiens) [µM]	NET formation, percentage of neutrophils [2] [%^5]	Histone citrullination, percentage of positive neutrophils [2] [%^5]	Enlarged nucleus, percentage of neutrophils [2] [%^5]	Enlarged nucleus, percentage of neutrophils [4]	Histone citrullination, percentage of positive neutrophils [4]	NET formation, percentage of neutrophils [4]	further results
N=C(CCl)NCCC[C@H](NC(=O)c1ccccc1)C(=O)NCc1ccccc1 [BL1-07]	> 20	10 to 20	–	–	–	–	–	–	induction of p53 and its target genes (p53 and its target genes; even at higher concentrations): less potent
NC(=O)[C@H](CCCN=C(N)CCl)NC(=O)c1ccccc1 [Cl-amidine]	–	–	0.32 ± 0.3	8.1 ± 1.3	1.2 ± 0.2	U.D.	U.D.	U.D.	histone H3 citrullination and chromatin decondensation induced by LPS ([2]; pretreatment of PAD4+/+ mouse neutrophils): significantly decreases; IC50 [1]: 150 to 200 µM; formation of NET-like structure [3]: represses the formation of NET-like structure
CCCCCCCCCCCCCC(=O)O[C@@H]1[C@@H](C)[C@@]2(O)[C@@H](C=C(CO)C[C@]3(O)C(=O)C(C)=C[C@@H]23)[C@@H]2C(C)(C)[C@]12OC(C)=O [PMA, phorbol myristate acetate]	–	–	2.7 ± 0.5	48.5 ± 3	10.9 ± 0.3	U.D.	U.D.	U.D.	–
O=C(CCCCCCC(=O)Nc1ccccc1)NO [SAHA, suberoylanilide hydroxamic acid, reference compound]	–	–	–	–	–	–	–	–	mouse growth and vital organ size ([5]; daily i.p. injection for 1 week): Neither SAHA alone nor mixtures of YW3-56 and SAHA impair; growth of S180 tumor relative to control group (S180 tumor): ~44.6%
OO [Structure H2O2, H2O2]	–	–	3 ± 0.3	48.3 ± 5.4	13.4 ± 1.4	U.D.	U.D.	U.D.	–
N=C(CCl)NCCC[C@H](NC(=O)c1ccc(-c2ccccc2)cc1)C(=O)NCc1ccccc1 [YW3-88]	> 20	~10	–	–	–	–	–	–	U2OS cell growth in MTT assay [1]: abolished cell growth; p21 and PUMA proteins by Western blot (p53 and its target genes): Increase; p53 target gene mRNA (p21, GADD45, PUMA, OKL38, DRAM, Sestrin2) (p53 and its target genes; 12 μM): Increase
N=C(CCl)NCCC[C@H](NC(=O)c1cccc(-c2ccccc2)c1)C(=O)NCc1ccccc1 [YW4-03]	~5	2.5 to 5	–	–	–	–	–	–	U2OS cell growth in MTT assay [1]: abolished cell growth
CN(C)c1ccc2cc(C(=O)N[C@@H](CCCNC(=N)CCl)C(=O)NCc3ccc(NC(=O)CCCNC(=O)CCCCC4SCC5NC(=O)NC54)cc3)ccc2c1 (some centres unmarked) [YW4-15]	–	20 to 50	–	–	–	–	–	–	IC50 (PAD4): 1 to 5 µM
COc1cccc2c1C(=O)c1c(O)c3c(c(O)c1C2=O)C[C@@](O)(C(=O)CO)C[C@@H]3O[C@H]1C[C@H](N)[C@H](O)[C@H](C)O1 [doxorubicin]	–	–	–	–	–	–	–	–	size of spleen relative to control mice ([5]; doxorubicin 2 mg/kg i.p. daily for 1 week): ~50%
lipopolysaccharides [LPS]	–	–	9.5 ± 0.5	42.3 ± 3.9	23.4 ± 2.7	U.D.	U.D.	U.D.	nuclear area increase in size (swelling nuclei) ([2]; PAD4+/+ neutrophils after LPS treatment, NIH image J): ~3.5 fold
